In paper PMC6338582, “rA1M-035, a Physicochemically Improved Human Recombinant α1-Microglobulin, Has Therapeutic Effects in Rhabdomyolysis-Induced Acute Kidney Injury” (Antioxidants & Redox Signaling, 2018):
Where a chain is given by its changes, count along the chain named. Values belong to the molecule of their own block, whether it stands above or below them.

Columns and labels:
[1] = biological target: T1, rA1M (recombinant human α1-microglobulin; rA1M-wt and rA1M-035) (Homo sapiens, UniProt P02760, N115D/N36D/R85H); assay: SPR (BIAcore X100), rA1M captured on immobilized anti-His antibody; assay type: binding
T1 construct: gene AMBP
T1 sequence (P02760 20-202 N36D/R85H/N115D): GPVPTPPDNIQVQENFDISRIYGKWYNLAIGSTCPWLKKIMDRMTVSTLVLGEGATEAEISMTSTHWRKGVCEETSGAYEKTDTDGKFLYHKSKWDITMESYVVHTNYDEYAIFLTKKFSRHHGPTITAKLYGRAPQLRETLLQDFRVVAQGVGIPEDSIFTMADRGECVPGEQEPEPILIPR

[2] = biological target: T2, rA1M (recombinant human α1-microglobulin; rA1M-wt and rA1M-035) (Homo sapiens, UniProt P02760); assay: as above; assay type: binding
T2 construct: gene AMBP
T2 sequence (P02760 20-202): T1 sequence (P02760 20-202 N36D/R85H/N115D) with D17N, H66R, D96N

[3] = SEC; 24-mL Superose 12 10/30 GL column, 20 mM Tris-HCl, pH 8.0 + 0.15 M NaCl; 100-200 ug protein loaded; unstressed samples at 0.1 mM or samples stored in PBS at the indicated concentrations, temperatures and times
[4] = biological target: P02760; assay: as above

- Kd [1]: 4.45 µM
- Kd [2]: 15.8 µM
Molecule: C=CC1=C(C)C2=Cc3c(C=C)c(C)c4[n]3[Fe]([Cl])[n]3c(c(C)c(CCC(=O)O)c3=CC3=NC(=C4)C(C)=C3CCC(=O)O)=CC1=N2 [heme]

Molecule: rA1M-035, recombinant human α1-microglobulin variant with N17D, R66H and N96D
- Monomer (%) [3]: 93%

B1: recombinant wild-type human α1-microglobulin (rA1M-wt) (protein)
chain: GPVPTPPDNIQVQENFNISRIYGKWYNLAIGSTCPWLKKIMDRMTVSTLVLGEGATEAEISMTSTRWRKGVCEETSGAYEKTDTDGKFLYHKSKWNITMESYVVHTNYDEYAIFLTKKFSRHHGPTITAKLYGRAPQLRETLLQDFRVVAQGVGIPEDSIFTMADRGECVPGEQEPEPILIPRV
- Monomer (%) [4]: 87%
